In brackets after ≈: the same amount, converted by molar mass.
Assay: Solubility of the active agent in water
Assay type: physicochemical

## COc1ccc2[nH]cc(CCNC(=O)CC3C(=O)N(CCc4ccc(Cl)cc4Cl)CC(=O)N3CCc3cccs3)c2c1 (stereo not shown) [LPT99, 2-(4-(2,4-Dichlorophenethyl)-3,6-dioxo-1-(2-(thiophen-2-yl)ethyl)piperazin-2-yl)-N-(2-(5-methoxy-1H-indol-3-yl)ethyl)acetamide]
  solubility: ~2.4 µM (≈ 1.51 µg/mL)

Source: patent US20230081064A1, “FORMULATIONS FOR DELIVERY TO THE EAR” (Spiral Therapeutics Inc., priority 2021, published 2023)
